Laboratory results taken from patent publication US11179409B2, “Cucurbitane tetracyclic triterpenoid compounds for application in treating pulmonary fibrosis” (CHENGDU BIOPURIFY LTD., priority 2015, dated 2021).

Columns and labels:
[1] = test system: bleomycin-induced pulmonary fibrosis model mice; assay: Bleomycin-induced mice pulmonary fibrosis model (tracheal bleomycin, stomach perfusion of drug); format: in vivo; settings: for Body weights compared with model group / Lung coefficients (lung weight mg/body weight g) compared with model group: high-dose and low-dose mogroside IIIe groups, prednisone acetate 6.67 mg/kg/d, P<0.01; for Body weights compared with model group: after 14 and 28 days of administration, FIG. 1; for Lung coefficients (lung weight mg/body weight g) compared with model group: after administration for 14 days and 28 days, FIG. 2; for Lung tissue fibrosis degree (Masson staining) compared with model group: lung section on day 28, FIG. 3
Excerpt: The above mogroside IIIe is selected to be subjected to in-vivo pharmacodynamical research. Injection of a bleomycin-induced mice pulmonary fibrosis model is a commonly used method in the world, and such model is similar to a human pulmonary interstitial fibrosis model.
100 male ICR mice with a body weight of 25-30 g are provided by Comparative Medicine Center of Yangzhou University.
20 mice are used as a blank control group (control group in FIG. 1), and the other 80 mice are used for modeling. All the above mice are anesthetized by virtue of intraperitoneal injection of 4% chloral hydrate, with injection volume of 10 ml/kg. After anesthesia, each mouse is fixed and the neck of the mouse is disinfected; the skin of its neck is cut longitudinally with scissors to expose the trachea; the syringe is inserted into the trachea. The mice in the blank control group are injected with normal saline, and the remaining mice are injected with bleomycin (5 mg/kg); then the mouse plate is quickly erected and rotated, and the wound of each mouse is sutured after observing the breathing condition of the mouse, and 1-2 drops of penicillin injection are dropped at the suture. The postoperative mouse is placed back in a dry and clean mouse cage for rest, and then is normally fed after it revives approximately 1-2 h later.
Starting from the day 7 after modeling, the other 80 mice are randomly divided into a model group, a positive drug (prednisone acetate) group, a high-dose mogroside IIIe (50 mg/kg, mogroside IIIe-H) group, a low-dose mogroside IIIe group (10 mg/kg, mogroside IIIe-L), 20 mice in each group.
The mice in the blank control group and the model group are subjected to stomach perfusion with normal saline every day, the mice in the positive drug group are subjected to stomach perfusion with 6.67 mg/kg/d prednisone acetate, the mice in the high-dose/low-dose mogroside IIIe groups are subjected to stomach perfusion with 50 mg/kg/d and 10 mg/kg/d respectively for continuous 28 days, and are killed on the day 14 and the day 28. The each mouse is recorded in body weight, the lung tissue is taken out via dissection, cleaned with ice normal saline, sucked dry with absorbent paper and weighed, and then a lung coefficient is calculated, i.e., lung coefficient=lung weight (mg)/body weight (g). The left lung is put into 4% neutral formaldehyde for fixation, gradually dehydrated with alcohol, transparentized with xylene, immersed in wax, embedded in paraffin, then routinely sectioned and subjected to Masson staining, so that the lung tissue morphology, lung injury condition and pulmonary fibrosis degree are observed. Other lung lobes are individually stored for determination of HYP content.
All data are expressed as mean±SD(x±s). SPSS 11.5 statistical software is used for processing. Statistical analysis is performed using one-way ANOVA. P<0.05 represents this group has statistical significance.
For mice lung tissue injury caused by bleomycin, the number of leukocytes is increased, especially neutrophil infiltration causes alveolar inflammation, and inflammatory cells release inflammatory mediators NO, TNF-α and various cytokines, thereby on one hand, aggravating lung tissue injury and on the other hand promoting excessive increase of collagen through various growth factors. This experiment is performed in accordance with requirement specification of a kit. The number of leukocytes in the bronchoalveolar lavage fluid of the mice in each group is detected by a colorimetric method on the day 14 (as shown in Table 1). Neutrophils and lymphocytes are obviously accumulated in the bronchoalveolar lavage fluid of the mice on the day 14 after treatment with bleomycin (BLM).
Hydrooxyproline (HPY) is an amino acid obtained through protein hydrolysis of connective tissues, accounts for about 14% of the weight of collagen and plays a crucial role in stability of collagen. […]

[2] = test system: bleomycin-induced pulmonary fibrosis model mice; assay: as above; format: in vivo; settings: for Lung tissue fibrosis degree (Masson staining) compared with model group: mice killed on day 28; for Lung coefficients compared with model group: day 28 after modeling, FIG. 7; for No. of neutrophils in bronchoalveolar lavage fluid / Total No. of cells in bronchoalveolar lavage fluid: n = 5
[3] = test system: LPS-induced RAW264.7 cells; assay: NO level in LPS-induced RAW264.7 cells; format: cell-based, mice; settings: within a range of 10-100 μM
[4] = test system: TGF-β1-induced human alveoli type II epithelial cells (A549); assay: α-SMA expression (Western blot) in TGF-β1-induced A549 epithelial-mesenchymal transition; format: cell-based; settings: TGF-β1 5 ng/mL, culture 48 hours, concentration of 50 μM, FIG. 5
Excerpt: Alveolar epithelial cells can obtain mesenchymal cell phenotypes through an epithelial cell-mesenchyme transformation (EMT) process to serve as an important source of myofibroblast and muscle fiber metrocyte. In this new mode, epithelial cell-mesenchyme transformation of pulmonary alveoli should be considered as one of key links of fibrosis. In mature cells, injury can induce transformation of epithelial cells into mesenchymal cell phenotype, thus facilitating the fibrosis of many organs. Fibroblasts and muscle fiber metrocytes differentiated from epithelial cells often change through form (for example, change from a cubical cell form to a strip form or a fusiform), obtaining of specific marker of the fibroblast or the muscle fiber metrocyte (for example, α-SMA) and loss of the epithelial character marker (for example, epithelial cell cadherin (E-cadherin and closely linked protein) are fussed together with these epithelial tissues. Through an in-vitro test, A549 cells are induced with TGF-β1 to generate epithelial cell-mesenchyme transformation (EMT), the α-SMA expression level of actin is analyzed adopting a Western blot method, and study meaning of mogroside IIIe on pathogensis of pulmonary fibrosis in a signal transduction pathway of an EMT process is discussed. […]

[5] = Example 2, mogroside IVe 50 mg/kg and 20 mg/kg, prednisone acetate 6.67 mg/kg/d, after administration for 14 days and 28 days, P<0.01, FIG. 6
[6] = Example 2, mogroside IVe 50 mg/kg and 20 mg/kg, prednisone acetate 6.67 mg/kg/d, P<0.01
[7] = Example 3, mogrol 50 mg/kg and 20 mg/kg, prednisone acetate 7.0 mg/kg/d, FIG. 9
[8] = Example 1, Table 1, 50 mg/kg high-dose group, day 14, mean±SD, *P<0.05 vs model group
[9] = Example 1, on the 28 d after administration, P<0.05 or P<0.01
[10] = Example 3, Table 3, 50 mg/kg high-dose group, day 14, vs model group
[11] = Example 2, Table 2, 50 mg/kg high-dose group, day 14, *P<0.05 vs model group

Row | SMILES | Body weights compared with model group ([1]; Example 1) | Lung coefficients (lung weight mg/body weight g) compared with model group ([1]; Example 1) | Lung tissue fibrosis degree (Masson staining) compared with model group ([1]; Example 1) | Lung tissue fibrosis degree (Masson staining) compared with model group ([2]; Example 2, FIG. 8) | Body weights compared with model group [2, 5] | Lung coefficients compared with model group [2, 6] | Body weights compared with model group [2, 7] | also measured
1 | CC(=O)OCC(=O)[C@@]1(O)CC[C@H]2[C@@H]3CCC4=CC(=O)C=C[C@]4(C)[C@H]3C(=O)C[C@@]21C [prednisone acetate, reference compound] | obviously increased | obviously decreased | the degree of the lesion is relieved than that in the model group | relieved | obviously increased | obviously reduced | obviously increased | 
2 | C[C@H](CC[C@@H](O[C@@H]1O[C@H](CO)[C@@H](O)[C@H](O)[C@H]1O[C@@H]1O[C@H](CO)[C@@H](O)[C@H](O)[C@H]1O)C(C)(C)O)[C@H]1CC[C@@]2(C)[C@@H]3CC=C4[C@@H](CC[C@H](O[C@@H]5O[C@H](CO)[C@@H](O)[C@H](O)[C@H]5O)C4(C)C)[C@]3(C)[C@H](O)C[C@]12C [mogroside IIIe] | obviously increased | obviously decreased | fibroblast hyperplasia degree is lower than that in the model group |  |  |  |  | Level of NO [3]: dose dependence to inhibit the level of NO; α-SMA expression caused by TGF-β1 [4]: significantly inhibit; Total number of cells in bronchoalveolar lavage fluid [1, 8]: 32.81 ± 18.53*; Content of TNF-α in the lung tissue compared with model group [1, 9]: significantly lower than those in the model group; Number of neutrophils in bronchoalveolar lavage fluid [2, 8]: 4.28 ± 4.52*; Content of HYP in lung tissue compared with model group ([2]; Example 1, 50 mg/kg, day 28, digestion method, P<0.05, FIG. 4): obviously reduce the content of HYP; Content of TGF-β1 compared with model group [2, 9]: significantly lower than those in the model group
3 | C[C@H](CC[C@@H](O)C(C)(C)O)[C@H]1CC[C@@]2(C)[C@@H]3CC=C4[C@@H](CC[C@H](O)C4(C)C)[C@]3(C)[C@H](O)C[C@]12C [mogrol] |  |  |  |  |  |  | obviously increased | No. of neutrophils in bronchoalveolar lavage fluid [2, 10]: 4.16 ± 4.26 ×10^4; Total No. of cells in bronchoalveolar lavage fluid [2, 10]: 34.72 ± 17.83 ×10^4; Lung tissue fibrosis degree (Masson staining) compared with model group ([2]; Example 3, high-dose/low-dose mogrol (50, 20 mg/kg), FIG. 10): fibroblast hyperplasia degree is lower than that in the model group; Lung index compared with model group ([2]; Example 3, high-dose/low-dose mogrol groups): obviously reduce lung index
4 | C[C@H](CC[C@@H](O[C@@H]1O[C@H](CO)[C@@H](O)[C@H](O)[C@H]1O[C@@H]1O[C@H](CO)[C@@H](O)[C@H](O)[C@H]1O)C(C)(C)O)[C@H]1CC[C@@]2(C)[C@H]3CC=C4[C@@H](CC[C@H](O[C@@H]5O[C@H](CO[C@@H]6O[C@H](CO)[C@@H](O)[C@H](O)[C@H]6O)[C@@H](O)[C@H](O)[C@H]5O)C4(C)C)[C@]3(C)[C@H](O)C[C@]12C [mogroside IVe] |  |  |  | fibroblast hyperplasia degree is lower than that in the model group | obviously increased | obviously reduced |  | No. of neutrophils in bronchoalveolar lavage fluid [2, 11]: 3.97 ± 3.89* ×10^4; Total No. of cells in bronchoalveolar lavage fluid [2, 11]: 30.84 ± 16.49* ×10^4
